Test systems include SNB-75 CNS; MDA-MB-231 breast; UO-31 renal; UACC-62 melanoma; SK-MEL-28 melanoma; U251 CNS; RPMI-8226 leukemia; SW-620 colon; A498 renal; NCI-H522 lung.
Assay in all cases: NCI anticancer screen, dose series, 48 h

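In this assay, cells in 96-well plates receive the compound at five concentrations for 48 hours. Endpoints are linearly interpolated between the surrounding concentrations. GI50: concentration for 50% inhibition of growth. TGI: total growth inhibition.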

As for `COc1ccc(OC)c(Nc2nc3nonc3nc2Nc2cccc(Br)c2)c1`, the GI50 in the test with SNB-75 CNS is 1.25 µM; in the test on MDA-MB-231 breast, 1.06 µM; in the test with UO-31 renal, 0.622 µM; in the test on UACC-62 melanoma it was 0.301 µM; in the test on SK-MEL-28 melanoma it was 0.779 µM; in the test with U251 CNS, 0.577 µM. For the same compound, the GI50 in the test with RPMI-8226 leukemia was 0.309 µM; in the test on SW-620 colon, 0.86 µM; in the test with A498 renal it was 0.461 µM; in the test on NCI-H522 lung, 0.254 µM. Moreover, the TGI in the test on SNB-75 CNS was 8.12 µM; in the test on MDA-MB-231 breast, 10.7 µM; with UO-31 renal, 53.7 µM; in the test on UACC-62 melanoma, 14.1 µM; with SK-MEL-28 melanoma, > 100 µM; in the test on U251 CNS it was 11.7 µM. Moreover, the TGI in the test with RPMI-8226 leukemia was 3.05 µM; in the test on SW-620 colon it was > 100 µM; in the test on A498 renal, 4.11 µM; in the test on NCI-H522 lung, 0.775 µM.
`C=C1C(=O)O[C@H]2[C@H]1CC/C(COC(=O)c1cccnc1N)=C\CC[C@@]1(C)O[C@@H]21`: the GI50 in the test with SNB-75 CNS was 3.16 µM; in the test with MDA-MB-231 breast it was 2.32 µM; in the test with UO-31 renal it was 2.17 µM; in the test with UACC-62 melanoma, 3.02 µM; in the test on SK-MEL-28 melanoma, 2.01 µM; in the test on U251 CNS, 3.77 µM. In addition, the GI50 is 0.365 µM in the test with RPMI-8226 leukemia, 0.583 µM in the test on SW-620 colon, 2.56 µM in the test with A498 renal and 0.379 µM in the test with NCI-H522 lung. Besides, the TGI with SNB-75 CNS was 17.8 µM; with MDA-MB-231 breast, 6.9 µM; with UO-31 renal it was 10.2 µM; with UACC-62 melanoma it was 13.3 µM; in the test on SK-MEL-28 melanoma, 8.85 µM; in the test on U251 CNS it was 14.5 µM. Moreover, the TGI in the test with RPMI-8226 leukemia amounted to 2.54 µM; in the test with SW-620 colon it was 3.82 µM; in the test with A498 renal, 7.27 µM; in the test with NCI-H522 lung, 2 µM.
As to `Oc1ccc2c(=S)cc(-c3ccc(Br)cc3)oc2c1O`, the GI50 is 4.56 µM in the test on SNB-75 CNS; 1.81 µM with MDA-MB-231 breast; 1.02 µM in the test on UO-31 renal; 2.09 µM in the test with UACC-62 melanoma; 2.94 µM with SK-MEL-28 melanoma; 2.44 µM in the test with U251 CNS. Further, the GI50 in the test on RPMI-8226 leukemia was 1.32 µM; with SW-620 colon it was 2.6 µM; in the test with A498 renal it was 2.15 µM; in the test with NCI-H522 lung, 1.16 µM. Further, the TGI in the test on SNB-75 CNS was > 100 µM; in the test with MDA-MB-231 breast, 8.4 µM; in the test with UO-31 renal, 6.66 µM; in the test with UACC-62 melanoma it was 4.85 µM; in the test with SK-MEL-28 melanoma, 28.7 µM; in the test on U251 CNS, 8.93 µM. For the same compound, the TGI in the test with RPMI-8226 leukemia came out at 18.3 µM; with SW-620 colon it was 21.6 µM; in the test with A498 renal, 7.46 µM; with NCI-H522 lung it was 3.88 µM.
For the compound `Brc1ccccc2cc(-c3ccccc3)nc1-2`, the TGI with SNB-75 CNS was 51.5 µM; in the test with MDA-MB-231 breast, > 42.3 µM; in the test with UO-31 renal it was 25.5 µM; with UACC-62 melanoma it was 23.7 µM; in the test with SK-MEL-28 melanoma it was 29.8 µM; with U251 CNS it was 37.5 µM. Besides, the TGI was 29.7 µM with RPMI-8226 leukemia, > 36.2 µM with SW-620 colon, 42.7 µM in the test with A498 renal and 21.7 µM with NCI-H522 lung.
With `Cc1ccc(/C=N/NC(=O)c2ccccc2Oc2ccccc2)o1`, the GI50 in the test with SNB-75 CNS is 12.8 µM; with MDA-MB-231 breast it was 32.7 µM; in the test with UO-31 renal it was 44.8 µM; in the test with UACC-62 melanoma, 17.3 µM; with SK-MEL-28 melanoma, 36.6 µM; in the test with U251 CNS, 52.2 µM. Further, the GI50 is 23.8 µM in the test with RPMI-8226 leukemia, > 77.6 µM in the test with SW-620 colon, > 58.5 µM in the test with A498 renal and 25.8 µM with NCI-H522 lung. Further, the TGI in the test with SNB-75 CNS is > 100 µM; with MDA-MB-231 breast it was > 100 µM; with UO-31 renal, > 100 µM; in the test on UACC-62 melanoma it was > 81.2 µM; in the test on SK-MEL-28 melanoma it was > 100 µM; in the test with U251 CNS, > 100 µM. For the same compound, the TGI in the test on RPMI-8226 leukemia is > 88.4 µM; with SW-620 colon, > 100 µM; in the test on A498 renal, > 100 µM; with NCI-H522 lung, > 100 µM.
With `Cc1sc(C(=O)c2cncnc2N[C@@H]2C[C@H](COS(N)(=O)=O)[C@@H](O)C2)cc1[C@@H]1NCCc2ccc(Cl)cc21`, the GI50 in the test with SNB-75 CNS is 1.65 µM; in the test on MDA-MB-231 breast, 9.29 µM; with UO-31 renal, 3.66 µM; in the test on UACC-62 melanoma it was 3.75 µM; in the test with SK-MEL-28 melanoma it was 9.88 µM; with U251 CNS, 10.9 µM. The GI50 was 2.01 µM in the test with RPMI-8226 leukemia, 7.63 µM in the test with SW-620 colon, 4.26 µM with A498 renal and 3.49 µM with NCI-H522 lung. The TGI amounted to 20.1 µM in the test with SNB-75 CNS; 24.8 µM with MDA-MB-231 breast; 24.6 µM in the test on UO-31 renal; 21.7 µM in the test with UACC-62 melanoma; 22.1 µM with SK-MEL-28 melanoma; 26.7 µM with U251 CNS. The TGI in the test with RPMI-8226 leukemia was 22.2 µM; in the test on SW-620 colon it was 24.5 µM; in the test on A498 renal, 20.2 µM; in the test with NCI-H522 lung, 25.9 µM.
For `COc1cc2c(cc1OC)C(C(CCCCCC(CCC(C)C)C1NCCc3cc(OC)c(OC)cc31)CCC(C)C)NCC2` (stereo not given), the GI50 in the test on SNB-75 CNS was 1.62 µM; with MDA-MB-231 breast, 0.791 µM; in the test with UO-31 renal it was 1.59 µM; in the test on UACC-62 melanoma, 1.59 µM; in the test with SK-MEL-28 melanoma, 1.85 µM; with U251 CNS it was 0.285 µM. Also, the GI50 in the test on RPMI-8226 leukemia is 0.327 µM; in the test with SW-620 colon, 0.193 µM; in the test with A498 renal, 1.51 µM; in the test with NCI-H522 lung, 1.72 µM. Besides, the TGI in the test with SNB-75 CNS is 3.05 µM; in the test with MDA-MB-231 breast, 2.41 µM; in the test with UO-31 renal it was 3.22 µM; in the test with UACC-62 melanoma, 2.97 µM; with SK-MEL-28 melanoma, 3.28 µM; with U251 CNS it was 0.979 µM. Further, the TGI in the test with RPMI-8226 leukemia worked out at 0.974 µM; in the test with SW-620 colon it was 0.387 µM; in the test with A498 renal it was 2.99 µM; in the test on NCI-H522 lung, 3.24 µM.
Regarding `CC12OC(CC(O)C1O)n1c3ccccc3c3c4c(c5c6ccccc6n2c5c31)C(=O)N(CCN1CCOCC1)C4=O` (stereo not given), the GI50 with SNB-75 CNS is 0.765 µM; in the test on MDA-MB-231 breast it was 3.04 µM; in the test on UO-31 renal it was 1.04 µM; in the test on UACC-62 melanoma, 0.568 µM; with SK-MEL-28 melanoma it was 2.16 µM; with U251 CNS, 0.604 µM. Besides, the GI50 in the test with RPMI-8226 leukemia is 1.55 µM; with SW-620 colon, 0.626 µM; with A498 renal, 0.838 µM; in the test on NCI-H522 lung it was 0.704 µM. The TGI was 5.37 µM in the test with SNB-75 CNS; 11.5 µM in the test with MDA-MB-231 breast; 5.77 µM with UO-31 renal; 1.47 µM in the test on UACC-62 melanoma; 8.57 µM in the test with SK-MEL-28 melanoma; 5.65 µM with U251 CNS. Besides, the TGI in the test with RPMI-8226 leukemia turned out to be 9.87 µM; with SW-620 colon, 7.42 µM; in the test on A498 renal, 3.27 µM; with NCI-H522 lung it was 3.63 µM.
`COc1cc(OCc2ccccc2)c2c(CCC(=O)O)cc(=O)oc2c1` (tested in a mixture with another compound): the TGI was > 100 µM in the test with SNB-75 CNS; > 100 µM in the test on MDA-MB-231 breast; > 100 µM in the test on UO-31 renal; > 100 µM in the test with UACC-62 melanoma; 99.9 µM in the test with SK-MEL-28 melanoma; > 100 µM in the test with U251 CNS. The TGI in the test with RPMI-8226 leukemia is > 100 µM; with SW-620 colon, > 100 µM; in the test on A498 renal, 80.6 µM; in the test with NCI-H522 lung, > 100 µM.
In the case of `NS(=O)(=O)c1ccc(N=Nc2ccc[nH]c2=O)cc1`, the TGI in the test with SNB-75 CNS, in the test on MDA-MB-231 breast, in the test on UO-31 renal, in the test on UACC-62 melanoma, in the test with SK-MEL-28 melanoma and with U251 CNS was > 100 µM each time. Besides, the TGI with RPMI-8226 leukemia, in the test on SW-620 colon, with A498 renal and in the test on NCI-H522 lung was > 100 µM each time.
